The text below walks through data of PubChem BioAssay AID179 (DTP/NCI, 2004).

Activity calls are given as the source filed them.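 The calls were made as follows: active = compounds giving half or more protection of infected cells from virus-caused growth loss, again on retest; inactive = the rest.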

In the assay the test system is CEM cells HIV-1 protection, formazan growth assay. Briefly: NCI AIDS Antiviral Assay. Conditions: for IC50: measured here: growth of uninfected CEM cells. The essentials: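 Five concentrations of each compound were applied to infected and uninfected human CEM cells. Protection from HIV-1 was judged from growth measured with a soluble formazan assay.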

One may read the EC50 as the concentration that produces a half-maximal response. One may read the IC50 as the concentration at which inhibition is half-maximal. A higher IC50 goes with lower potency. `Cc1cc(C)nc(NS(=O)(=O)c2ccc(Nc3c4ccccc4nc4c(C(=O)Nc5ccc(S(=O)(=O)Nc6cc(C)on6)cc5)ccc(Cl)c34)cc2)n1`: the EC50 is greater than 46.8 µM and the 50% inhibitory concentration (IC50) stood at 41.7 µM.

Turning to `Cc1cn(C2C[C@@H]3C(COC(c4ccc([N+](=O)[O-])cc4)N3O)O2)c(=O)[nH]c1=O` (stereo partly specified), the EC50 was greater than 200 µM and the IC50 was greater than 200 µM.

Turning to `COc1ccc(C2CC(c3ccccc3)=Nc3ccccc3S2)cc1OC` (stereo unspecified), the EC50 was greater than 39.8 µM and the concentration for half-maximal inhibition (IC50) was 8.51 µM.

`Nc1nc([O-])c2c(n1)[n+](C1OC(CO)C(O)C1O)cn2CCO` (stereo unspecified): the EC50 is greater than 759 µM and the IC50 was greater than 759 µM.

On to `c1cc(-c2csc(-c3ccsc3)c2)cs1`, for which the EC50 was greater than 200 µM and the concentration for half-maximal inhibition (IC50) is greater than 200 µM.

On to `Cc1nc(Cc2n[nH]c(C)n2)n[nH]1`, for which the EC50 was greater than 200 µM and the concentration for half-maximal inhibition (IC50) was greater than 200 µM.

With `COc1ccccc1C1=Nc2ccccc2N=C(c2ccccc2O)C1`, the EC50 is greater than 200 µM and the IC50 came out at 93.3 µM.

Turning to `O=C(O)c1ccc(NC(=O)C2C(=O)C(=O)N(c3ccc(C(=O)O)cc3)C2=O)cc1` (stereo unspecified), the EC50 is greater than 47.9 µM and the IC50 is greater than 47.9 µM.

`C[C@@H](NC(=O)Cn1c(Cl)nc2ccccc21)c1ccccc1`: the EC50 was greater than 200 µM and the concentration for half-maximal inhibition (IC50) worked out at 13.5 µM.

`CCCN1CC=C(c2cc(C(=O)OCC)[nH]c2-c2cc(C)no2)C1=O`: the EC50 was greater than 200 µM and the IC50 turned out to be 107 µM.

For `COc1ccc(-c2coc3cc(O)ccc3c2=O)c(O)c1OC`, the EC50 was greater than 200 µM and the concentration for half-maximal inhibition (IC50) turned out to be 14.8 µM.

Take `OCC1C(CO)C2CCC1C2(c1ccccc1)c1ccccc1` (stereo unspecified): the EC50 was greater than 95.5 µM and the IC50 is 60.3 µM.

Turning to `OC1[C@H](O)CN(OCc2ccccc2)C[C@@H]1O` (stereo partly specified), the EC50 was greater than 200 µM and the IC50 is greater than 200 µM.

In the case of `C/C=C/OC1C(C2COC(C)(C)O2)OC2OC(C)(C)OC21` (stereo unspecified), the EC50 was greater than 200 µM and the IC50 was greater than 200 µM.

Take `CC(=O)OCc1cc(-c2nc3ccccc3[nH]c2=O)nn1-c1ccc(Cl)cc1`: the EC50 is greater than 200 µM and the concentration for half-maximal inhibition (IC50) is greater than 200 µM.

On to `CC(C)CCCC(C)[C@H]1CCC(C2C[C@@H](O)[C@@H]3CC(O)[C@@H](O)C[C@]3(CO)C2=O)[C@]1(C)CCO` (stereo partly specified), for which the EC50 was greater than 200 µM and the half-inhibitory concentration (IC50) worked out at 34.7 µM.

On to `COc1ccc(C[n+]2cccc(O)c2)cc1`, for which the EC50 is greater than 200 µM and the half-inhibitory concentration (IC50) came to 112 µM.

`Cc1ccc2nc(-c3ccccc3)c(N=O)n2c1`: the EC50 was greater than 200 µM and the IC50 was 170 µM.

On to `COc1ccc(-c2nnc(CCCCCCCCc3nnc(-c4ccc(OC)cc4)n3N)n2N)cc1`, for which the EC50 was greater than 200 µM and the half-inhibitory concentration (IC50) was greater than 200 µM.

On to `COC(=O)C(N=O)C(=O)OC`, for which the outcome was inactive.

As to `CCOC(=O)Nc1nc2ccc(Cn3cccc3)cc2[nH]1`, the EC50 is greater than 13.2 µM and the IC50 amounted to 0.794 µM.

Consider `CC(=O)OC1C(COC(N)=O)OC(n2c(-c3ccc(C)cc3)cc(-c3ccccc3)c(C#N)c2=O)C(OC(C)=O)C1OC(C)=O` (stereo unspecified), for which the EC50 is greater than 11.5 µM and the IC50 was greater than 11.5 µM.

`c1ccc(-c2[o+]c(-c3ccccc3)c(-c3ccccc3)c(-c3ccccc3)c2-c2ccccc2)cc1`: the result was inactive.

As for `OC1CSc2nc3ccccc3n2C1` (stereo unspecified), the EC50 was greater than 200 µM and the IC50 was greater than 200 µM.

On to `NNC(=O)c1n[nH]nc1C(=O)NN`, for which the EC50 is greater than 200 µM and the IC50 was greater than 200 µM.

`CC(C)=CCc1c2c(c3occ(-c4ccc(O)c(O)c4)c(=O)c3c1O)C=CC(C)(C)O2`: the 50% effective concentration (EC50) is greater than 200 µM and the IC50 is 39.8 µM.

For `O=C(O)Cc1cc(=O)oc2c1ccc1ccccc12`, the EC50 is greater than 200 µM and the half-inhibitory concentration (IC50) amounted to 135 µM.

As for `C/C(=N/N)c1sc(-c2nc(C)c(/C(C)=N\N)s2)nc1C`, the EC50 was greater than 61.7 µM and the 50% inhibitory concentration (IC50) is greater than 61.7 µM.

For the compound `Nc1nc(SCC(=O)c2ccccc2)nc2nc3c(c(-c4ccccc4)c12)CCCC3`, the EC50 is greater than 100 µM and the IC50 turned out to be 66.1 µM.
